Earlier results as cited in US20250332117A1, “Thin Films with Peroxides and Uses Thereof” (Silverpeutics, Inc., priority 2024, published 2025).

Tests used:
cells = conditions: general statement, no source given
bacteria = conditions: general statement, no source given

OO [peroxide, Hydrogen peroxide]
peroxide concentration at which cell killing is observed (cells): above 500 μM
peroxide concentration at which partial bacteriostatic effects are observed (bacteria): 25 to 50 µM
